Source: US20190290729A1, “PHARMACEUTICAL ASSOCIATION OF GROWTH FACTOR RECEPTOR AGONIST AND ADHESION PROTEIN INHIBITOR FOR CONVERTING A NEOPLASTIC CELL INTO A NON-NEOPLASTIC CELL AND USES THEREOF” (HISTIDE AG, priority 2015, published 2019)
Where no end group is shown, it is not given here.

Key:
MG63 cells [1] = test: p53 protein expression level, immunofluorescence staining quantified with ImageJ, osteosarcoma cells; type: cell-based, human; parameters: P53: unit not given here; conditions: for p53 (%): Table 4, cyclic GFR-binding peptide in association with SiRNA Integrin alpha 3 and SiRNA Integrin beta 1, 400 ng/mL, 24 hours; for P53: Table 9, in association with SiRNA Integrin alpha 3+SiRNA Integrin beta 1 (SEQ ID NO: 141 to 163)
Procedure: (§1) The following starting materials and reagents were used: • Type-I collagen sponge was obtained from Sigma®. • PBS 1× was obtained from Gibco®. • MilliQ water: is water characterised in terms of resistivity (typically 18.2 MΩ·cm at 25° C.). • Low glucose Dulbecco's Modified Eagle Medium (DMEM) was obtained from Invitrogen® • Minimum Essential Medium Eagle without ascorbic acid (αMEM) was obtained from Invitrogen®. • All of the cell culture experiments were carried out without any serum in the medium for the first 8 hours of culture. • Osteosarcoma cells: MG63 cells were obtained from ATCC®. These cells were cultured in DMEM (Eagle's Minimum Essential Medium) medium supplemented with 10% fetal calf serum (FCS) and 1% penicillin/streptomycin. All cells were used at a low passage number (passage 10), were subconfluently cultured and were seeded at 10^4 cells/cm^2 for the purpose of the experiments. • Chondrosarcoma cells Hs819.T cells were obtained from ATCC®. These cells were cultured in DMEM (Eagle's Minimum Essential Medium) medium supplemented with 10% fetal calf serum (FCS) and 1% penicillin/streptomycin. All cells were used at a low passage number (passage 10), were subconfluently cultured and were seeded at 10^4 cells/cm^2 for the purpose of the experiments. • Rhabdomyosarcoma cells: A-673 cells were obtained from ATCC®. These cells were cultured in DMEM (Eagle's Minimum Essential Medium) medium supplemented with 10% fetal calf serum (FCS) and 1% penicillin/streptomycin. All cells were used at a low passage number (passage 10), were subconfluently cultured and were seeded at 10^4 cells/cm^2 for the purpose of the experiments. • Adenocarcinoma cells: HCC4006 cells were obtained from ATCC®. These cells were cultured in RPMI-1640 medium (obtained from ATCC®) supplemented with 10% fetal calf serum (FCS) and 1% penicillin/streptomycin. All cells were used at a low passage number (passage 10), were subconfluently cultured and were seeded at 10^4 cells/cm^2 for the purpose of the experiments. • CMFDA is a Cell Tracker Green obtained from Invitrogen®. • DAPI was obtained from Sigma®. • Fetal bovine serum (FBS) was obtained from Gibco®. • Penicillin/streptomycin was obtained from Invitrogen®. • The AlamarBlue® assay was obtained from Molecular Probes®. • Anti phospho-p53 antibody was obtained from Santa Cruz Biotechnology®, • Anti pRB antibody was obtained from Santa Cruz Biotechnology®, • Monoclonal anti-integrin (extracellular domain) αv, α5, α3, α4, β1, β3, β5 and β9 antibodies were obtained from Santa Cruz Biotechnology®, • Cell cytoskeletal filamentous actin (F-actin) was visualized by Alexa Fluor® 488 phalloidin Sigma® labeling. • Monoclonal anti-vinculin antibody (clone hVIN-1, produced in mouse) was obtained from Sigma®.
(§2) • All of the peptides were synthetized using conventional solution and/or solid phase peptide synthesis methods. • All of the experiments were performed with a concentration of 400 ng/mL of GFR-binding compound(s) as defined herein. • All cell culture experiments were performed with cultures on plastic coated with type-I collagen in order to mimic the physiological conditions of the human body. • The compositions of pharmaceutical compositions used in the examples below are summarized in the following table:
(§3) The cells were first fixed for 20 min with 4% paraformaldehyde/PBS at 4° C. After fixation, the cells were permeabilized in PBS containing 1% Triton X-100 for 15 min. Protein immunofluorescent visualization was performed by first treating the cells with 1% (v/v) specific monoclonal antibodies for 1 hour at 37° C. Then the samples were incubated with Alexa Fluor® 568 or 647 (F(ab′)2 fragment of IgG(H+L)) during 30 min at room temperature. The cell nuclei were counterstained in 20 ng/mL DAPI for 10 min at room temperature.
(§4) For this type of quantification the freeware image analysis ImageJ® software was used. […]

MG63 cells [2] = test: pRB phosphorylation level, immunofluorescence staining quantified with ImageJ, osteosarcoma cells; type: cell-based, human; conditions: for pRB: Table 9, in association with SiRNA Integrin alpha 3+SiRNA Integrin beta 1 (SEQ ID NO: 141 to 163)
Procedure: as §1, §2, §3, §4

[3] = test system: human rhabdosarcoma cells; test: pRB quantification, same procedure, rhabdosarcoma cells; type: cell-based; conditions: for pRB: Table 9, in association with SiRNA Integrin alpha 3+RGDSPC+SiRNA Integrin beta 1+SiRNA Syndecan 1 (SEQ ID NO: 31, 32, 164 to 187)
Procedure: as §1, §2, §3, §4

[4] = test system: human rhabdosarcoma cells; test: p53 quantification, same procedure, rhabdosarcoma cells; type: cell-based; parameters: P53: unit not given here; conditions: for P53: Table 9, in association with SiRNA Integrin alpha 3+RGDSPC+SiRNA Integrin beta 1+SiRNA Syndecan 1 (SEQ ID NO: 31, 32, 164 to 187)
Procedure: as §1, §2, §3, §4

[5] = Table 4, MG63 cells, cyclic GFR-binding peptide in association with SiRNA Integrin alpha 3 and SiRNA Integrin beta 1, 400 ng/mL, 24 hours
[6] = Table 7, human osteosarcoma cells, MG63, GFR-binding compound within pharmaceutical association
[7] = Table 8, in association with SiRNA Integrin alpha 3, v, 4 and SiRNA Integrin beta 1
[8] = Table 5, cyclic GFR-binding peptide in association with SiRNA Integrin alpha 3+RGDSPC+SiRNA Integrin beta 1+SiRNA Syndecan 1, 400 ng/mL

APTGGSATSMLYYDKGVVTYLRKHRGGVVKDKGVVTY (also: cyclic, ring not given here) [SEQ ID NO: 38204]
p53 (%) (MG63 cells [1]): 37%
pRB (%) (MG63 cells [2]; [5]): 11%

APTLLNAISMLYFNDKQQIILKKYRLLVVRNDKQQII (also: cyclic, ring not given here) [SEQ ID NO: 38203]
p53 (%) (MG63 cells [1]): 44%
pRB (%) (MG63 cells [2]; [5]): 12%

APVAAKPLSMLYVDKGVVTYDHHKDAAVEEDEYDKVV (also: cyclic, ring not given here) [SEQ ID NO: 38209]
p53 (%) (MG63 cells [1]): 38%
pRB (%) (MG63 cells [2]; [5]): 11%

ASASPSSVPQDLEPLTILYYVGRTPKVEQLSNMV (Non-cyclic GFR-binding peptide) [SEQ ID NO: 55]
pRB (%) (MG63 cells [2]; [6]): 17%

CAPTKLSAISMLYLDSSNNVILKNYQ (Non-cyclic GFR-binding peptide) [SEQ ID NO: 154]
P53 (MG63 cells [1]): 40
pRB (MG63 cells [2]; MG63 cells): 14

CAPTQLSPISVLYKDDSSNVILKYHYTLEDH (Non-cyclic GFR-binding peptide) [SEQ ID NO: 148]
P53 (MG63 cells [1]): 42
pRB (MG63 cells [2]; MG63 cells): 9

CASAAPSSVPQKLNAISMLYFVGRKPKVLKKYRMIVRS (Non-cyclic GFR-binding peptide) [SEQ ID NO: 157]
P53 (MG63 cells [1]): 34
pRB (MG63 cells [2]; MG63 cells): 11

CASASPSSVSQDLNAISVLYFIGKTPKILKKYRMIVKSSKSS (Non-cyclic GFR-binding peptide) [SEQ ID NO: 145]
P53 (MG63 cells [1]): 38
pRB (MG63 cells [2]; MG63 cells): 6

CASASPSSVSQDLSAISTLYLIGKTPKILKNYQMIVKSSKSS (Non-cyclic GFR-binding peptide) [SEQ ID NO: 143]
P53 (MG63 cells [1]): 37
pRB (MG63 cells [2]; MG63 cells): 14

CASSAVSQELSAISMLYLGGGLKNYQDM (Non-cyclic GFR-binding peptide) [SEQ ID NO: 155]
P53 (MG63 cells [1]): 47
pRB (MG63 cells [2]; MG63 cells): 6

CAVPKASSAPTKLSATSVLYYDSSNNVVLRKHRNMVVK (Non-cyclic GFR-binding peptide) [SEQ ID NO: 146]
P53 (MG63 cells [1]): 38
pRB (MG63 cells [2]; MG63 cells): 11

NDEGLECVPTEERPVQVRKIRIKPHQGQKKATVFLQHNK [SEQ ID NO: 54] (Non-cyclic GFR-binding peptide)
pRB (%) (MG63 cells [2]; [6]): 12%

NDEGLECVPTEERPVQVRKIRIKPHQGQKKATVFLQHNK [SEQ ID NO: 59] (Non-cyclic GFR-binding peptide)
pRB (%) (MG63 cells [2]; [6]): 22%

RNVQCRPTQLEPLPIVYYEIVRKKPEQLSNTLEDHLA [SEQ ID NO: 56] (Non-cyclic GFR-binding peptide)
pRB (%) (MG63 cells [2]; [6]): 21%

RNVQCRPTQLEPLPIVYYEIVRKKPEQLSNTLEDHLA [SEQ ID NO: 61] (Non-cyclic GFR-binding peptide)
pRB (%) (MG63 cells [2]; [6]): 18%

SRVLLRPVQMRKIDKGVVTYKKATVLLEEH (Non-cyclic GFR-binding peptide) [SEQ ID NO: 139]
pRB (%) [3, 7]: 18%
P53 (%) [4, 7]: 49%

TPTSSSPINTLYFDDMGVPTYGKIPSSVVD (Non-cyclic GFR-binding peptide) [SEQ ID NO: 130]
pRB (%) [3, 7]: 15%
P53 (%) [4, 7]: 48%

TQVAARPVQTRKIDDMGVPTKKATVAAEDH (Non-cyclic GFR-binding peptide) [SEQ ID NO: 140]
pRB (%) [3, 7]: 17%
P53 (%) [4, 7]: 35%

VPEAASSLSMLFFEIVRKKPIFLKVYPAATVE (Non-cyclic GFR-binding peptide) [SEQ ID NO: 124]
pRB (%) [3, 7]: 12%
P53 (%) [4, 7]: 37%

VPQAAEPLPMLYYDKGVVTYEQLSNAAVRS (Non-cyclic GFR-binding peptide) [SEQ ID NO: 133]
pRB (%) [3, 7]: 7%
P53 (%) [4, 7]: 42%

VPQQQEPLTTLYYDEYDKVVEQLSNQQVKS (Non-cyclic GFR-binding peptide) [SEQ ID NO: 134]
pRB (%) [3, 7]: 8%
P53 (%) [4, 7]: 50%

VPTAAEPISMLYLDEYDKVVKFKYEAAAVS (Non-cyclic GFR-binding peptide) [SEQ ID NO: 129]
pRB (%) [3, 7]: 20%
P53 (%) [4, 7]: 42%

VPTAAEPLTMLYYEIVRKKPIFEQLSNMVEHSDDMGVPT (also: cyclic peptide) [SEQ ID NO: 38223]
pRB (%) [3, 8]: 17%
P53 (%) [4, 8]: 44%

VPTAASAISILYLDAANNVVLKNYQAAVVE (Non-cyclic GFR-binding peptide) [SEQ ID NO: 123]
pRB (%) [3, 7]: 11%
P53 (%) [4, 7]: 32%

VPTDDSATSTLYYDKGVVTYLRKHRDDEHS (Non-cyclic GFR-binding peptide) [SEQ ID NO: 137]
pRB (%) [3, 7]: 12%
P53 (%) [4, 7]: 42%

VPTGGEPLTTLYYNDKQQIIEQLSNGGEHS (Non-cyclic GFR-binding peptide) [SEQ ID NO: 138]
pRB (%) [3, 7]: 20%
P53 (%) [4, 7]: 45%

VPTMMSNITTQIMRIKPHQGQHIGEMSMMQHN (Non-cyclic GFR-binding peptide) [SEQ ID NO: 135]
pRB (%) [3, 7]: 16%
P53 (%) [4, 7]: 48%

VPTSSSPISTLYIDKGVVTYLKYHYSSVAE (Non-cyclic GFR-binding peptide) [SEQ ID NO: 128]
pRB (%) [3, 7]: 21%
P53 (%) [4, 7]: 36%

VPTVVSAISTLYLRIKPHQGQHLKNYQVVVVE (Non-cyclic GFR-binding peptide) [SEQ ID NO: 125]
pRB (%) [3, 7]: 9%
P53 (%) [4, 7]: 42%

VPTVVSPISMLYIDDMGVPTYKQYEVVVVE (Non-cyclic GFR-binding peptide) [SEQ ID NO: 131]
pRB (%) [3, 7]: 12%
P53 (%) [4, 7]: 36%

VSQAARPVQTRKIDDMGVPTKKATVAAVKSDDMGVPT (also: cyclic peptide) [SEQ ID NO: 38220]
pRB (%) [3, 8]: 9%
P53 (%) [4, 8]: 42%

VSQDLSAISTLYLKIVRKEPLKNYQEMVEE (Non-cyclic GFR-binding peptide) [SEQ ID NO: 58]
pRB (%) (MG63 cells [2]; [6]): 19%

WWFWGASSAVSQELSAISMLYLGGGLKNYQDMQHN (Non-cyclic GFR-binding peptide) [SEQ ID NO: 171]
pRB [3]: 8
P53 [4]: 47

WWFWGKASSVPTELSPISTLYKDENEKVVLKYHYDMVVEGSGSR (Non-cyclic GFR-binding peptide) [SEQ ID NO: 170]
pRB [3]: 7
P53 [4]: 44
